PMC10663244 (Investigational New Drugs, 2023)
Like-named read-outs stand apart in the source and are kept apart here.

What was measured:
[1] = system: FGFR2 fusion/rearrangement-positive cholangiocarcinoma (CCA); parameters: method as in PMID 29182496; conditions: 108 previously-treated patients; cited from earlier work
UC = system: UC; parameters: method as in PMID 31340094; conditions: 99 patients with UC; cited from earlier work
[2] = Plasma pharmacokinetics of pemigatinib (LC–MS/MS, non-compartmental), phase I; format: in vivo, human (Chinese patients); conditions: for Tmax: read-out: tmax, median (min, max)
serum phosphate [3] = assay: Pharmacodynamics: serum phosphate level as PD marker for FGFR inhibition; format: in vivo, human (Chinese patients)
Experimental: Serum phosphate level was defined as the PD marker in the study for assessing FGFR inhibition. […] Serum phosphate levels were measured using phosphomolybdate UV method (measuring range: 0.31‑20.0 mg/dL) by the central laboratory (Q2 Solutions [Beijing] Co., Ltd.).
Serum samples were analyzed for the concentration of serum phosphate using phosphomolybdate UV method by the central laboratory (Q2 Solutions (Beijing) Co., Ltd.). The concentration of phosphomolybdate formed is directly proportional to the inorganic phosphate concentration and is measured photometrically. Phosphorus quantification was determined in human plasma on Roche/Hitachi cobas c systems. Measuring range was 0.10‑6.46 mmol/L (0.31‑20.0 mg/dL). Reagents: Phosphate (Inorganic) ver.2 (250 tests) Catalouge:03183793 122.

[4] = system: FGF/FGFR1-3 altered, advanced solid tumors; assay: Antitumor activity per RECIST v1.1 by investigator, phase I; format: in vivo, human (Chinese patients); conditions: 12 patients
Experimental: Tumor response was assessed by investigator according to Response Evaluation Criteria in Solid Tumors (RECIST) v1.1 every 9 weeks after first dosing.
(§1) Tumor was assessed per RECIST v1.1 by investigator at baseline, and every 9 weeks after first dosing. […] Adverse events (AEs) were graded per CTCAE v5.0. […] Sponsor-defined clinically notable TEAEs included hyperphosphatemia, hypophosphatemia, nail toxicities, and serous retinal detachment.
(§2) All statistical analyses were conducted using SAS version 9.4 (or higher).
The Clopper-Pearson method was used to calculate the 95% confidence interval (CI) of ORR and DCR. The Kaplan–Meier method and the Brookmeyer and Crowley method were used to estimate PFS.

[5] = Safety: treatment-emergent adverse events (CTCAE v5.0), phase I; format: in vivo
Experimental: as §1, §2

[6] = Western population, steady state, cited from earlier work
serum phosphate [7] = conditions: Western population; cited from earlier work
[8] = system: FGF/FGFR alterations and advanced malignancies; conditions: Western patients, cited from earlier work
[9] = cited from earlier work
advanced malignancies = conditions: Japanese population, cited from earlier work
[10] = any grade, Japanese patients; cited from earlier work
[11] = 13.5 mg oral QD, C1D14 (steady state), N=12

CCN1CCN(c2ccc(Nc3cc(N(C)C(=O)Nc4c(Cl)c(OC)cc(OC)c4Cl)ncn3)cc2)CC1 [Infigratinib]
ORR [1]: 23.1%

COc1cc(OC)cc(N(CCNC(C)C)c2ccc3ncc(-c4cnn(C)c4)nc3c2)c1 [erdafitinib]
Overall objective response rate (ORR) (UC): 40%

CCN1C(=O)N(c2c(F)c(OC)cc(OC)c2F)Cc2cnc3[nH]c(CN4CCOCC4)cc3c21 [pemigatinib]
CLss/F, geometric mean [2, 11]: 11.8 L/h | CLss/F, mean ± STD [2, 11]: 13.3 ± 7.2 L/h | Cmin,ss, geometric mean [2, 11]: 49.8 nM | tmax, median (min, max) [2, 11]: 1.99 (0.5, 23.2) h | AUCss,0-24, geomean ([2]; Chinese patients, steady state, 13.5 mg QD): 2.6369 µM·h | Cmax ([2]; Chinese patients, steady state, 13.5 mg QD, read-out: Cmax,ss, geomean): 215 nM | AUC(0-t) ([2]; human, plasma, po, 13.5 mg, 13.5 mg oral QD, C1D1, N=12, read-out: AUC0-24, geometric mean (converted)): 2.13 µM·h | AUC(0-t) ([2]; human, plasma, po, 13.5 mg, 13.5 mg oral QD, C1D1, N=12, read-out: AUC0-24, mean ± STD): 2.24 ± 0.861 µM·h | Cmax ([2]; human, plasma, po, 13.5 mg, 13.5 mg oral QD, C1D1, N=12, read-out: Cmax, geometric mean (converted)): 154 nM | Cmax ([2]; human, plasma, po, 13.5 mg, 13.5 mg oral QD, C1D1, N=12, read-out: Cmax, mean ± STD): 190 ± 108 nM | Tmax ([2]; human, plasma, po, 13.5 mg, 13.5 mg oral QD, C1D1, N=12): ~1.52 h | AUC ([2]; human, plasma, po, 13.5 mg, 13.5 mg oral QD, C1D14 (steady state), N=12, read-out: AUCss,0-24, geometric mean (converted)): 2.64 µM·h | AUC ([2]; human, plasma, po, 13.5 mg, 13.5 mg oral QD, C1D14 (steady state), N=12, read-out: AUCss,0-24, mean ± STD): 2.94 ± 1.44 µM·h | Cmax ([2]; human, plasma, po, 13.5 mg, 13.5 mg oral QD, C1D14 (steady state), N=12, read-out: Cmax,ss, geometric mean (converted)): 215 nM | Cmax ([2]; human, plasma, po, 13.5 mg, 13.5 mg oral QD, C1D14 (steady state), N=12, read-out: Cmax,ss, mean ± STD): 246 ± 115 nM | Vd/F ([2]; human, plasma, po, 13.5 mg, 13.5 mg oral QD, C1D14 (steady state), N=12, read-out: Vz/F, geometric mean (converted)): 170 L | Vd/F ([2]; human, plasma, po, 13.5 mg, 13.5 mg oral QD, C1D14 (steady state), N=12, read-out: Vz/F, mean ± STD): 179 ± 60.4 L | Tmax ([2]; human, plasma, po, 13.5 mg, 13.5 mg oral QD, C1D14 (steady state), N=12): ~1.99 h | half-life ([2]; human, plasma, po, 13.5 mg, 13.5 mg oral QD, C1D14 (steady state), N=12, read-out: t½ (elimination half-life), geometric mean (converted)): 11.3 h | half-life ([2]; human, plasma, po, 13.5 mg, 13.5 mg oral QD, C1D14 (steady state), N=12, read-out: t½, mean ± STD (converted)): 11.8 ± 4 h | Serum phosphate level increase, mean (serum phosphate [3]; days 8 and 15 of cycle 1, 13.5 mg QD, 11 patients, CV% 31.3%): 2.25 mg/dL | Serum phosphate concentration change from baseline, geomean (CV%) (serum phosphate [3]; days 8 and 15 of cycle 1, Chinese patients): 2.15 (32.9%) mg/dL | Serum phosphate level after 1 week off (serum phosphate [3]; post 1 week off/intermission): decreased to baseline | Serum phosphorus during subsequent treatment (serum phosphate [3]; subsequent treatment after cycle 1): remained below or near the baseline levels | Objective response rate (ORR) ([4]; 13.5 mg QD 2-weeks-on/1-week-off, confirmed): 16.7% | Best overall confirmed response: Partial response [4]: 2 (16.7%) n (%) | Objective response rate ([4]; 95% CI […] - 48.4%): 2 (16.7%) n (%) | TEAEs leading to treatment interruption/discontinuation or death ([5]; 12 patients): No TEAEs led to treatment interruption/discontinuation or death | Anaemia ([5]; human, in vivo): 6 (50.0) n (%) | Blood alkaline phosphatase increased ([5]; human, in vivo): 0 n (%) | Blood bilirubin increased ([5]; human, in vivo): 0 n (%) | Blood lactate dehydrogenase increased ([5]; human, in vivo): 0 n (%) | Decreased appetite ([5]; human, in vivo): 6 (50.0) n (%) | Diarrhoea ([5]; human, in vivo): 0 n (%) | Gamma-glutamyltransferase increased ([5]; human, in vivo): 1 (8.3) n (%) | Hypoalbuminaemia ([5]; human, in vivo): 6 (50.0) n (%) | Hypochloraemia ([5]; human, in vivo): 0 n (%) | Incidence of anaemia ([5]; human, in vivo): 50.0% | Incidence of arthralgia ([5]; human, in vivo): 8.3% | Incidence of decreased appetite ([5]; human, in vivo): 50.0% | Incidence of gamma-glutamyltransferase increased ([5]; human, in vivo): 8.3% | Incidence of hypercalcaemia ([5]; human, in vivo): 8.3% | Incidence of hypoalbuminaemia ([5]; human, in vivo): 50.0% | Incidence of hypophosphatemia (clinically-notable TEAE) ([5]; human, in vivo): 25.0% | Incidence of lipase increased ([5]; human, in vivo): 8.3% | Incidence of nail discolouration (clinically-notable TEAE) ([5]; human, in vivo): 8.3% | Incidence of nail disorder (clinically-notable TEAE) ([5]; human, in vivo): 16.7% | Incidence of nail toxicity (clinically-notable TEAE) ([5]; human, in vivo): 16.7% | Incidence of proteinuria ([5]; human, in vivo): 8.3% | Low density lipoprotein increased ([5]; human, in vivo): 0 n (%) | Patients with dose reduction due to proteinuria ([5]; human, in vivo): 8.3% | Patients with grade ≥ 3 TEAEs ([5]; human, in vivo): 25.0% | Patients with grade ≥ 3 treatment-related AEs ([5]; human, in vivo): 16.7% | Proteinuria ([5]; human, in vivo): 1 (8.3) n (%) | Weight decreased ([5]; human, in vivo): 0 n (%) | Ocular toxicity (vision blurred of grade 1) ([5]; in vivo): only one patient experienced ocular toxicity | Serious TEAEs ([5]; in vivo): No serious TEAEs occurred | AUCss,0-24, geomean [6]: 2.62 µM·h | Cmax ([6]; read-out: Cmax,ss, geomean): 236 nM | Serum phosphate concentration change from baseline, geomean (CV%) (serum phosphate [7]): 2.6 (40.4%) mg/dL | ORR for patients with FGFR mutations ([8]; Fight-101, 3/13): 23.1% | ORR for patients with FGFR fusions/rearrangements ([8]; Fight-101, 5/20): 25.0% | Disease control rate ([8]; Fight-101): 40.6% | Objective response rate ([8]; Fight-101): 9.4% | Incidence of hyperphosphataemia ([9]; any grade, Western patients): 75% | Incidence of hyperphosphataemia ([9]; grade ≥ 3, Western patients): 2.3% | Objective response rate (advanced malignancies; Fight-102, 1/25): 4.0% | Disease control rate (advanced malignancies; Fight-102): 40.0% | Incidence of hyperphosphataemia [10]: 76%
